Assay results as given in PubChem BioAssay (NCI).
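Exposure lasted 48 hours, with cells grown in 96-well plates and compounds tested at five concentrations. Here, GI50 denotes the concentration required for 50% inhibition of growth. Definition used: TGI = concentration required for complete inhibition of growth.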

How the values were obtained:
Test in all cases: DTP human tumour cell line panel, 48 h
SNB-75 CNS = system: SNB-75 CNS
A498 renal = system: A498 renal
786-0 renal = system: 786-0 renal
SK-MEL-5 melanoma = system: SK-MEL-5 melanoma
MALME-3M melanoma = system: MALME-3M melanoma
UO-31 renal = system: UO-31 renal
K-562 leukemia = system: K-562 leukemia
SK-OV-3 ovarian = system: SK-OV-3 ovarian
M14 melanoma = system: M14 melanoma
SK-MEL-2 melanoma = system: SK-MEL-2 melanoma

Row | SMILES | GI50 (SNB-75 CNS) [µM] | TGI (SNB-75 CNS) [µM] | GI50 (A498 renal) [µM] | TGI (A498 renal) [µM] | GI50 (786-0 renal) [µM] | TGI (786-0 renal) [µM] | GI50 (SK-MEL-5 melanoma) [µM] | TGI (SK-MEL-5 melanoma) [µM] | GI50 (MALME-3M melanoma) [µM] | TGI (MALME-3M melanoma) [µM] | GI50 (UO-31 renal) [µM] | TGI (UO-31 renal) [µM] | GI50 (K-562 leukemia) [µM] | TGI (K-562 leukemia) [µM] | GI50 (SK-OV-3 ovarian) [µM] | TGI (SK-OV-3 ovarian) [µM] | GI50 (M14 melanoma) [µM] | TGI (M14 melanoma) [µM] | GI50 (SK-MEL-2 melanoma) [µM] | TGI (SK-MEL-2 melanoma) [µM]
1 | COc1cc(NC(C)CCCNC(C)C)c2ncccc2c1OC (configuration not stated) | 20.5 | > 100 | 0.416 | > 100 | > 100 | > 100 | > 100 | > 100 | 42.3 | > 100 | 5.29 | > 100 | 32.8 | > 100 | > 100 | > 100 | > 100 | > 100 | – | –
2 | O=C(CN(/C=C/C(=O)C(F)(F)F)c1ccccc1)c1ccc(Cl)cc1 | – | – | 20.4 | 42.2 | 15.3 | 29.1 | 16.4 | 31.6 | 18.1 | 40.7 | 19.9 | 41.7 | 20.9 | 53.2 | 36.4 | > 100 | – | – | 19.2 | 43.9
3 | Cc1cc2c(cc1CO)N1Cc3cc(C)c(CO)cc3N(C2)C1 | – | > 100 | – | – | – | > 100 | – | > 100 | – | – | – | – | – | > 100 | – | > 100 | – | > 100 | – | –
4 | CCCCN1C(=O)/C(=c2\sc3n(c2=O)C2C(NN=3)N(CC)C(=O)N2CC)c2ccccc21 (configuration not stated) | 0.258 | 1.56 | 0.169 | 0.721 | 1.14 | 4.18 | – | – | 0.639 | 3.27 | – | – | 0.542 | > 100 | 0.911 | 5.89 | 0.479 | 2.31 | 1.47 | 5.75
5 | CCN(CC)c1ccc(/C=N/NC(=O)CSc2nc3ccccc3c(=O)n2Cc2ccc(S(N)(=O)=O)cc2)c(O)c1 | 2.86 | > 100 | – | – | 1.84 | > 100 | 1.57 | 4.97 | 1.09 | > 100 | 2.89 | > 100 | 0.592 | > 100 | 1.32 | > 100 | 0.452 | 10.9 | 2.41 | > 100
6 | c1cc[c]([Sn]([O]c2cccc3cccnc23)([O]c2cccc3cccnc23)[c]2ccccc2)cc1 | 0.419 | 1.45 | – | – | 0.57 | 4.74 | 0.245 | 0.593 | – | – | – | – | 0.221 | 0.631 | 1.83 | 3.24 | 0.198 | 0.4 | – | –
7 | COc1ccc(-c2nc(N)c(C#N)c3c2CCOc2c-3ccc3ccccc23)cc1 | > 100 | > 100 | – | – | 17.2 | 48.3 | – | – | 15.2 | 50.1 | 49.9 | > 100 | > 100 | > 100 | 17.4 | 55 | 66.6 | > 100 | 36.8 | > 100
8 | Cc1ccc(O)c(NC2=C(Cl)C(=O)N(Cc3ccccc3)C2=O)c1 | – | – | – | – | 29.6 | 86.1 | 21.1 | 40.7 | 23 | 67.5 | 16 | 41 | 12.4 | 59.6 | 80.5 | > 100 | 22.5 | 70.6 | 19 | 39
9 | COc1cccc(NC(=O)c2sc3nc4c(cc3c2N)C(O)CCC4)c1 (configuration not stated) | 0.17 | 24.7 | 0.112 | 4 | 0.503 | > 100 | 0.311 | 8.29 | – | – | 0.607 | > 100 | 0.0406 | > 100 | 0.317 | > 71.3 | 0.134 | > 100 | 0.249 | > 100
10 | CCN(CC)c1ccc2nc3ccc(N=Nc4ccc(O)cc4)cc3[n+](-c3ccccc3)c2c1 | 10 | 21.9 | > 100 | > 100 | 26.6 | > 100 | 2.92 | 12.2 | – | – | – | – | – | – | 35.7 | > 100 | 2.29 | 4.79 | 2.65 | > 100
11 | CCN(CC)c1nc(NC2CCCCC2)c2nc(N(CC)CC)nc(NC3CCCCC3)c2n1 | – | – | – | > 100 | – | > 100 | – | > 100 | – | > 100 | – | – | – | > 100 | – | > 100 | – | > 100 | – | –
12 | COC(=O)/C(=C/c1ccc(OC)cc1)C(C(=O)O)=C1CCCCC1 | – | > 100 | – | > 100 | – | > 100 | – | > 100 | – | – | – | > 100 | – | > 100 | – | > 100 | – | > 100 | – | > 100
13 | Cc1cn2c(/C=N/N=C(N)N)c(-c3ccncc3)nc2s1 | – | – | – | – | 15.8 | 29.3 | 19.8 | 34.6 | – | – | 18.9 | 43.7 | 15.4 | 34 | – | – | 16.7 | 30.3 | 28.3 | > 100
14 | CC(C)(C)c1nc(-c2cccc(NS(=O)(=O)c3c(F)cccc3F)c2F)c(-c2ccnc(N)n2)s1 | – | – | – | – | 48.9 | > 100 | 0.0129 | > 100 | – | – | 0.46 | > 100 | 25.6 | > 100 | – | – | – | – | – | –
15 | COc1ccc(-c2n[nH]nc2-c2cc(OC)c3c(c2)OCO3)cc1 | 0.0128 | 1.72 | < 0.01 | 0.0693 | 0.0423 | 28.5 | 0.0267 | 0.899 | – | – | 0.0505 | 73 | < 0.01 | > 100 | 0.0294 | 2.08 | 0.014 | 10.5 | 0.0184 | 20.3
16 | O=C(O)Cn1ccc2ccccc21 | > 100 | > 100 | > 100 | > 100 | > 100 | > 100 | > 100 | > 100 | > 100 | > 100 | > 100 | > 100 | – | – | > 100 | > 100 | > 100 | > 100 | > 100 | > 100
